From patent publication US10617694B2 (priority 2016, dated 2020)
Like-named read-outs stand apart in the source and are kept apart here.

Columns and labels:
[1] = system: patients with obstructive sleep apnea; test: Table 1 summary of efficacy and side effects in sleep apnea, compared with acetazolamide, topiramate and zonisamide data; format: in vivo, human; design: key to Side effect paresthesia (P) (scale 0-3) / Side effect cognitive dysfunction (C) (scale 0-3): 1 = none; 2 = low; 3 = medium; 4 = high; Reduction in AHI: concentration or dose not given beside the values; conditions: for Side effect total rating (T) (scale 0-3): T = (P + 2C)/3, Table 1; for Reduction in AHI: own data: sultiame Examples 1 and 2 (n = 3); for Reduction in AHI / Efficacy AHI reduction (rating 0-3) / Side effect cognitive dysfunction (C) (scale 0-3) / Side effect paresthesia (P) (scale 0-3): acetazolamide Example 2; for Efficacy AHI reduction (rating 0-3) / Side effect cognitive dysfunction (C) (scale 0-3) / Side effect paresthesia (P) (scale 0-3): own data: sultiame Examples 1 and 2, topiramate unpublished data
Description: The results from Example 1 and 2 are summarized in table 1, below, where the results are further compared with data reflecting the effect of acetazolamide, topiramate and zonisamide in sleep apnea.

[2] = system: patients with obstructive sleep apnea; design: key to Side effect paresthesia (P) (scale 0-3) / Side effect cognitive dysfunction (C) (scale 0-3): 1 = none; 2 = low; 3 = medium; 4 = high; conditions: cited from earlier work; for Reduction in AHI / Reported adverse events. Frequency (n/patient): literature: acetazolamide meta data from 9 publications (n = 268), zonisamide Eskandari et al. (n = 13); for Efficacy AHI reduction (rating 0-3) / Side effect cognitive dysfunction (C) (scale 0-3) / Side effect paresthesia (P) (scale 0-3): literature: acetazolamide meta data, zonisamide Eskandari et al.
Carbonic anhydrase (CA) = test: Carbonic anhydrase activity in venous blood from a patient with obstructive sleep apnea (pH curve AUC); format: biochemical, human; conditions: diluted hemolysed blood of one OSA patient
Method: Carbonic anhydrase (CA) activity was assessed in human plasma from an apnea patient using a method previously described in detail (Teng et al, Sleep 2016). […] The blood sample (antecubital vein) was collected in an EDTA-coated tube, stored within 30 min at −20° C. and subsequently transferred to −70° C. Prior to analysis, the sample was slowly thawed, refrozen and re-thawed on ice in order to obtain hemolysis. The assay was adapted from a method previously described by Everaert et al (ref in Teng et al, Sleep 2016). In detail, a buffer consisting of 0.02M HEPES, 0.02M MES, 0.035M KCl and 0.015M NaCl with a balanced capacity in the pH 6-8 range was prepared. The subsequent analysis was conducted on ice in order to maintain a temperature of around 0-1° C. A separate solution constituting of 200 ml of 0-1° C. distilled water was continuously flushed with 100% CO2 and kept at 0-1° C. for at least 30 min. […] The pH in the reaction vessel was continuously monitored at 1 Hz during 120 s. […] The intra- and inter assay variability was 5.0% and 7.6%, respectively. pH curves were plotted and analysed (FIG. 1). In order to reflect time of the catalysed reaction the area under the curve (AUC, range 802-837) was calculated as the sum of all pH assessments during 120 sec. […]

[3] = system: subjects with obstructive sleep apnea; test: Long term effect of sultiame and acetazolamide in obstructive sleep apnea, sleep studies (Example 2); conditions: for AHI at follow-up: sultiame 200 mg single daily dose for three months
healthy volunteers = test: Clinical trial on tolerability of a high dose of sultiame in healthy volunteers; format: in vivo, human
Method: Most earlier clinical trials have been carried out in patients diagnosed with epilepsy. The goal of this study was to investigate the tolerability of sultiame in non-epileptic patients.
The trial involved 16 healthy volunteers. […] The administration was carried out without ramping up the dose. There were only two reports of adverse events in this group of 16 volunteers (32 dosing occasions, 12.5% of individuals or 6.25% of dosing occasions). These adverse events were limited to short periods of headache, which occurred when the drug was administered without food. The headache resolved within a short time frame.

[4] = cited from earlier work
[5] = system: patient with obstructive sleep apnea; test: Repeated dosing of sultiame in obstructive sleep apnea, repeated sleep studies (Example 1); format: in vivo, human; conditions: for central AHI: baseline 3.2 n/h; for obstructive AHI: baseline 12.4 n/h; for AHI: baseline 16.6 n/h; for lowest saturation: baseline 87%; for mean oxygen saturation: baseline 95.3%
Description: Person, BMI 28.3 kg/m^2. The subject was a non-smoker and there was no history of cardiovascular or metabolic disease and no regular medication. This subject presented with a history of snoring, witnessed apneas, and increased daytime sleepiness. They had previously tested both CPAP and mandibular advancement therapy with moderate regression of symptoms. The subject had experienced intolerable side effects including dry airways and sneezing caused by CPAP therapy. They had experienced discomfort from the temporomandibular joints following use of an intraoral device for mandibular advancement.
There had been a weight gain corresponding to 2 kg during the last three years.
It was decided that sultiame should be tested. Repeated sleep studies were undertaken before and after therapy with sultiame.
This second assessment provided the following values: AHI 9.8 n/h (central AHI 2.2 n/h and obstructive AHI 7.6/h), mean oxygen saturation 95.8%, lowest saturation 89%, and periodic breathing pattern 10.1 minutes.
There had been a weight reduction corresponding to 1.2 kg

[6] = own data: acetazolamide Example 2, topiramate unpublished data (n = 4)
[7] = topiramate unpublished data (n = 4)
[8] = 100 mg orally once daily, after 5 days
[9] = sultiame 200 mg daily for three months, both subjects

CC(=O)Nc1nnc(S(N)(=O)=O)s1 [Acetazolamide]
Side effect total rating (T) (scale 0-3) [1]: 2.7
Reported adverse events. Frequency (n/patient) [1, 6]: 1.0/patient
Reduction in AHI [1, 7]: 28.0%
Efficacy AHI reduction (rating 0-3) [1]: 1 (5-<30% = 1)
Side effect cognitive dysfunction (C) (scale 0-3) [1]: 2
Side effect paresthesia (P) (scale 0-3) [1]: 4
Reduction in AHI [2]: 37.3%
Reported adverse events. Frequency (n/patient) [2]: 1.08/patient
Reduction in AHI ([2]; listed as acetazolamide): 37.3%
Efficacy AHI reduction (rating 0-3) [2]: 2 (30-<50% = 2)
Side effect cognitive dysfunction (C) (scale 0-3) [2]: 2
Side effect paresthesia (P) (scale 0-3) [2]: 4
CA activity after compound (peak inhibition), arbitrary units 850-AUC (Carbonic anhydrase (CA); 0-1° C., 120 s, activity without compound 32, concentrations 1×10^−11 to 5×10^−9 M): 19.5 units
reduction of CA activity (Carbonic anhydrase (CA); reduction from 32 units): 39%
side effects: paraesthesia ([3]; acetazolamide 500 mg o.d., both subjects): both subjects developed peripheral paraesthesia
oxygen desaturation index (ODI) ([3]; first subject, acetazolamide 500 mg o.d., 10 days after start, before 16.6 n/h): 12.6 n/h
AHI ([3]; first subject, acetazolamide 500 mg o.d., 10 days after start, before 17.4 n/h): 13.4 n/h
oxygen desaturation index (ODI) ([3]; second subject, acetazolamide 500 mg o.d., 16 days after start, before 12.6 n/h): 9.2 n/h
AHI ([3]; second subject, acetazolamide 500 mg o.d., 16 days after start, before 15.2 n/h): 10.2 n/h

NS(=O)(=O)c1ccc(N2CCCCS2(=O)=O)cc1 [Sultiame]
tolerability at high doses (healthy volunteers; 200 mg without ramping up the dose, healthy volunteers): excellent tolerability
reports of adverse events (short periods of headache, drug administered without food) (healthy volunteers; 200 mg, 16 volunteers, 32 dosing occasions): two
adverse events, % of dosing occasions (healthy volunteers; 200 mg, 32 dosing occasions, 16 healthy volunteers): 6.25%
adverse events, % of individuals (healthy volunteers; 200 mg, two times (with and without prior food intake), 16 healthy volunteers): 12.5%
Side effect total rating (T) (scale 0-3) [1]: 1
Reduction in AHI [1, 7]: 62.7%
Reduction in AHI ([1]; topiramate unpublished data (n = 4), listed as sultiame): 62.7%
Efficacy AHI reduction (rating 0-3) [1]: 3 (≥50% = 3)
Side effect cognitive dysfunction (C) (scale 0-3) [1]: 1
Side effect paresthesia (P) (scale 0-3) [1]: 1
Reported adverse events. Frequency (n/patient) ([1]; sultiame, Examples 1 and 2 (n = 3)): 0% (AHI reduction 0-5 < % = 0)
adverse effects after administration ([1]; sultiame, patients with obstructive sleep apnea, Examples 1 and 2): not observed
half-life in plasma [4]: about 24 hrs
daytime symptoms of sleepiness [5, 8]: general resolution of daytime symptoms of sleepiness
central AHI [5, 8]: 2.2 n/h
obstructive AHI [5, 8]: 7.6 h⁻¹
AHI [5, 8]: 9.8 n/h
lowest saturation [5, 8]: 89%
mean oxygen saturation [5, 8]: 95.8%
periodic breathing pattern ([5]; 100 mg orally once daily, after 5 days, baseline 14.3 minutes): 10.1 min
central AHI ([5]; 200 mg once daily for 14 days): 1.2 n/h
obstructive AHI ([5]; 200 mg once daily for 14 days): 3.0 n/h
AHI ([5]; 200 mg once daily for 14 days): 4.2 n/h
lowest saturation ([5]; 200 mg once daily for 14 days): 90%
mean oxygen saturation ([5]; 200 mg once daily for 14 days): 96.7%
periodic breathing pattern duration ([5]; 200 mg once daily for 14 days, baseline 14.3 minutes): 2.8 min
dose dependence of AHI reduction ([5]; 200 mg once daily versus 100 mg once daily): reduced AHI in a dose-dependent manner
AHI at follow-up ([3]; first subject, day 89, before 17.4 n/h): 7.6 n/h
AHI at follow-up ([3]; second subject, day 90, before 15.2 n/h): 6.5 n/h
daytime sleepiness ([3]; sultiame 200 mg daily for three months, both cases): reduction of daytime sleepiness
side effects: paraesthesia [3, 9]: not reported
snoring [3, 9]: reduced snoring
tolerability [3, 9]: well tolerated by both subjects
effectiveness in decreasing sleep apnea versus acetazolamide ([3]; sultiame 200 mg daily versus acetazolamide 500 mg o.d.): considerably more effective than acetazolamide

CC1(C)O[C@@H]2[C@@H](CO[C@@]3(COS(N)(=O)=O)OC(C)(C)O[C@@H]23)O1 [Topiramate]
Side effect total rating (T) (scale 0-3) [1]: 3.7
Reported adverse events. Frequency (n/patient) [1, 6]: 0.75/patient
Reduction in AHI [1, 7]: 28.0%
Reduction in AHI ([1]; topiramate unpublished data (n = 4), listed as topiramate): 28.0%
Efficacy AHI reduction (rating 0-3) [1]: 1 (5-<30% = 1)
Side effect cognitive dysfunction (C) (scale 0-3) [1]: 4
Side effect paresthesia (P) (scale 0-3) [1]: 3

NS(=O)(=O)Cc1noc2ccccc12 [Zonisamide]
Side effect total rating (T) (scale 0-3) [1]: 3.3
Reduction in AHI [2]: 20.7%
Reported adverse events. Frequency (n/patient) [2]: 0.44/patient
Reduction in AHI ([2]; listed as zonisamide): 20.7%
Efficacy AHI reduction (rating 0-3) [2]: 1 (5-<30% = 1)
Side effect cognitive dysfunction (C) (scale 0-3) [2]: 4
Side effect paresthesia (P) (scale 0-3) [2]: 2
